According to US20220332758A1, “PEPTIDE-BASED COMPOSITIONS AND METHODS FOR TREATING ALZHEIMER'S DISEASE” (Board of Regents, The Universityof Texas System, priority 2019, published 2022):
“Also recorded” adds a separate entry of the source.

Legend:
[1] = test system: Elav-gs-GAL4>UAS-APP; UAS-BACE1 flies; assay: Olfaction aversion training in fly AD model; assay type: in vivo, Drosophila melanogaster; conditions: 1 μM mixed into food, 10 days
Procedure: Olfactory aversion training. Experiments were performed broadly (Malik, B. R. & Hodge, J. J. J Vis Exp, e50107, doi:10.3791/50107 (2014)). Animals were exposed (via an air pump) in alternation to two neutral odors (3-octanol and 4-methylcyclohexanol, prepared as a 1/10 dilution in mineral oil) for 5 minutes under low red-light and a 100V 60 Hz shock was applied during exposure to one of the two odors. The odor associated with the electric shock was alternated between vials. After three training rounds per odor, animals were given one hour to recover then placed in a T-maze (Celexplorer labs) with opposing odors from either side. Flies were allowed two minutes to explore the maze after which the maze sections were sealed and the number of flies in each chamber scored.
The compounds were tested as follows: in neuroblast MC65 cell culture model with overexpressed C99 fragment of amyloid precursor protein (APP) upon tetracycline withdrawal or with external APP added; and in fruit fly (D. melanogaster) model of AD with overexpressed APP and BACE1. The compounds (1 μM) were mixed with food. Flies were trained to recognize “positive” and “negative” odors (olfaction aversion). The compounds were also treated in hAPP (J20) mice which overexpress a familial variant of APP. The compounds were injected for 14 days (1 mg/kg). Novel Object Recognition assay was used to test learning and memory.

[2] = Stability in human serum; assay type: in vitro ADME
[3] = target: T1, proteasome ChT-L activity in SK-N-SH (ATCC HTB-11) cells (Homo sapiens, UniProt P25787+P60900); assay: ChT-L proteasome activity in lysates of SK-N-SH cells treated with TAT peptides; assay type: cell-based; conditions: for proteasome ChT-L activity in lysates from treated cells vs control lysates: 1 μM, 24 h
T1 construct: host or cells: SK-N-SH human neuroblastoma cells
Procedure: Cell Culture. Human SK-N-SH neuroblastoma cell line (ATCC® HTB-11™ American Type Culture Collection; Manassas, Va.) were cultured according to ATCC specifications (EMEM, 10% heat-inactivated FBS) The cells at passage 2-4 were treated with 1 μM TAT peptides or the DMSO vehicle diluted with the medium 1: 1000, for 24 h. The content of live cells was determined by the Trypan Blue-exclusion assay. The cells were harvested, washed twice in PBS, resuspended in dilution buffer (as described herein) and stored in −80° C. To prepare lysates, the thawed preparations were vortexed with glass beads and centrifuged for 5 min 5,000×g (4° C.). The supernatant was centrifuged for 20 min 14,000×g (4° C.). The resulting supernatant—“crude lysate” was diluted to 1 mg/mL of total protein with dilution buffer. 1 μg of lysate per assay (reaction buffer: 50 mM Tris/HCl pH 8, 0.1 mM MgCl2, 0.2 mM ATP, 0.1 mM dithiothreitol, 50 μM Suc-LLVY-AMC (SEQ ID NO: 14)) was used for determination of ChT-L activity in a 96-well format, as above.

[4] = target: T2, α face pockets of the 20S core proteasome (Homo sapiens, UniProt P25787+P60900); assay: Competition of TAT peptides with Rpt C-terminal tail peptides for α face pockets (ChT-L activity of 20S); assay type: biochemical; conditions: for enhanced activation with Rpt tails: 1 μM Rpt peptide; for competition with Rpt tail peptides: 1 μM Rpt peptide added before the TAT peptide
T2 construct: purified from erythrocytes; purchased Boston Biochem, Inc. or Enzo Life Sciences, Inc; host or cells: human erythrocytes
Description: As mentioned herein, the binding pockets on the α face accept “anchors” from natural protein ligands of the 20S core. […] The 10-residue Rpt-derived C-terminal “tail” peptides (“Rpt peptides”) can be used as competitors with the Rpt subunits or with small allosteric ligands. Importantly, the Rpt peptides interject between the subunits with their C-termini, whereas TAT peptides, according to the modeling, use their N-termini for this purpose. To test the specificity of interactions between TAT compounds and the α face, competition experiments were performed. The 20S core was challenged with selected TAT compounds after treatment with Rpt peptides. Peptides of Rpt2 ([…]; SEQ ID NO: 10), Rpt3 ([…]; SEQ ID NO: 11), Rpt5 ([…]; SEQ ID NO: 12) and Rpt6 ([…]; SEQ ID NO: 13) subunits were selected, docking in α3/α4, α1/α2, α5/α6 and α2/α3 pockets, respectively. Tails of Rpt2, 3, and 5 display the canonical HbYX motif, whereas the LeuTrpLys C-terminus of Rpt6 may be considered “pseudo-HbYX”, with a bulky Trp replacing Tyr. Results of the competition experiments are presented as radar plots in FIG. 15. […] This pocket also emerged as the major binding site for (1) and (8). However, these compounds likely weakly competed with the Rpt2 tail for binding to the α3/α4 pocket as well. The α3/α4 pocket seemed to be favored by (6). […] These complex patterns point at the importance of allosteric effects between the α face ligands, the gate and the catalytic chamber.
Determination of Proteasome Activity. Human housekeeping core (20S) proteasome purified from erythrocytes was purchased from Boston Biochem, Inc. (Cambridge, Mass.) or from Enzo Life Sciences, Inc. (Farmingdale, N.Y.). Multiple batches of the proteasomes were used and performed reproducibly. The stock proteasome was diluted to 0.2 mg/mL working solution in “dilution buffer” (50 mM Tris/HCl, pH 8, 20% glycerol). The following model peptide substrates, releasing fluorescent 7-amino-4-methylcoumarin (AMC) reporter group after cleavage, were used: succinyl-LeuLeuValTyr-AMC (SEQ ID NO: 14) (for the ChT-L peptidase; SucLLVY-AMC; Bachem Bioscience Inc., Philadelphia, Pa.), butoxycarbonyl-LeuArgArg-AMC (T-L; Bachem Bioscience Inc., Philadelphia, Pa.) and carbobenzoxy-LeuLeuGlu-AMC (PGPH; Enzo Life Sciences Inc., Farmingdale, N.Y.). The substrates were used at concentration of 50 μM (ChT-L) or 100 μM (T-L, PGPH). Free AMC (Sigma-Aldrich, St. Louis, Mo.) was used as the standard. The C-terminal peptides derived from Rpt2, Rpt3, Rpt5 and Rpt6 were synthesized (standard solid-phase peptide chemistry) and purified to at least 98% purity by GenScript (Piscataway, N.J.). The TAT peptides, Rpt peptides (except Rpt6) and the peptide substrates were dissolved in anhydrous dimethylsulfoxide (DMSO; Sigma-Aldrich, St. Louis, Mo.) and such stock solutions were stored at −20° C. The total concentration of DMSO in final reaction mixtures never exceeded 3% (vol/vol). The Trp (tryptophan)-containing Rpt6 peptide was dissolved in ultrapure water and stored at −20° C., protected from light. The reaction was carried out in 96-well plates, in 100 μL of reaction mixture that consisted of 45 mM Tris/HCl, pH 8, 100 mM KCl, 1 mM EDTA (reaction buffer) and a fluorogenic peptide substrate, to which 200 ng (nearly […]) of proteasome were added. The addition of KCl/EDTA (ethylenediaminetetraacetic acid) to reaction buffer assured latency of the core proteasome. The proteasome was preincubated with a substrate for 10 min at room temperature, then 1 μL of DMSO or a desired concentration of a TAT peptide in 1 μL of DMSO were added. After mixing, the plate was transferred to a Fluoroskan Ascent plate reader (Thermo Fisher Scientific Inc., Waltham, Mass.) for 1 h (37° C.), with fluorescence readouts once per minute. To test the competition with Rpt derived peptides, the Rpt peptide (1 μM) was added before the TAT peptide to the reaction mixture. […]

In the case of `N=C(N)NCCCC(NC(=O)CN)C(=O)NC(CCCCN)C(=O)NC(CCCCN)C(=O)NC(CCCNC(=N)N)C(=O)NC(CCCNC(=N)N)C(=O)NC(CCC(N)=O)C(=O)N1Cc2ccccc2C[C@H]1C(=O)N1C(C(=O)NC(CCCNC(N)N)C(=O)N2CCCC2C(=O)NC(CO)C(=O)O)CC2CCCCC21` (some centres unmarked) [(5), GRKKRRQ-TOD-RPS], the “olfaction aversion training performance” value [1] is reported as “Improved performance in olfaction aversion training”, the half-life [2] is reported as roughly 2 h and the “proteasome ChT-L activity in lysates from treated cells vs control lysates” value [3] is reported as “significantly higher than activity in control lysates”. For the same molecule, the “dose and time dependence of proteasome activation in cells” value ([3]; 0.5 or 1.0 μM, four or 24 h) was “substantially stronger after 4 h exposure than after 24 h”, the “enhanced activation with Rpt tails” value [4] was “enhanced activation in the presence of one of Rpt tails, namely Rpt5 or Rpt6” and the “competition with Rpt tail peptides” value [4] was “the Rpt3 peptide (α1/α2 pocket) was its sole competitor; also recorded: competed fairly specifically with Rpt3 tail”.

In the case of `NCCCCC(N)C(=O)NC(CCCCN)C(=O)NC(CCCCN)C(=O)Nc1cc(NC(=O)C(CCCCN)NC(=O)C(CCCCN)NC(=O)C(N)CCCCN)cc(C(=O)NC(CCCCN)C(=O)NC(CCCCN)C(=O)NC(CCCCN)C(=O)O)c1` (centres unmarked) [(8)], the “olfaction aversion training performance” value [1] is reported as “Improved performance in olfaction aversion training”, the “stability in serum (in words)” value [2] is reported as “rapidly modified from triple-lysines to double-lysines” and the “proteasome ChT-L activity in lysates from treated cells vs control lysates” value [3] is reported as “significantly higher than activity in control lysates”. For the same molecule, the “enhanced activation with Rpt tails” value [4] was “enhanced activation in the presence of one of Rpt tails, namely Rpt5 or Rpt6” and the “competition with Rpt tail peptides” value [4] was “weakly negative score for the Rpt2 tail to the presumed major competitor Rpt3”.
